The target of data set [1] is T1, human OAT1 (Homo sapiens, UniProt Q4U2R8).
T1 construct: expressed in transfected cells; host or cells: CHO (protocol UPT-CHO-OAT1-Tenofovir; control: parental CHO-K1)
T1 sequence (Q4U2R8 1-563): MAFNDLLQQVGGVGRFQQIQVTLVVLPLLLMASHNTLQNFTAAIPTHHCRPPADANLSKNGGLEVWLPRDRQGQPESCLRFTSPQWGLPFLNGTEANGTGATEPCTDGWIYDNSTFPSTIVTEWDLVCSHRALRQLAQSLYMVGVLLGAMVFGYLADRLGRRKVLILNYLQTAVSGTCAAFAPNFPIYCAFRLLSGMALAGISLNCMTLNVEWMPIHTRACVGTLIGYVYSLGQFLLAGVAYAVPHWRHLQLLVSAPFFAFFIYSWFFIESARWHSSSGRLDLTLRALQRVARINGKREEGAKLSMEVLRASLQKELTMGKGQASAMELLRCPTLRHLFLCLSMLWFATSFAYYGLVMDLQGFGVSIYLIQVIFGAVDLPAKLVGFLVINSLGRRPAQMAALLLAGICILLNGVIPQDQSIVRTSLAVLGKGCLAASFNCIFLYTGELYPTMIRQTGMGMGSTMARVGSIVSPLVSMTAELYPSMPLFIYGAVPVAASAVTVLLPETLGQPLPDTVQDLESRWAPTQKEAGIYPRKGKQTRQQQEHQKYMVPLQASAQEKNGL
Briefly: Uptake transporter inhibition assay, OAT1. The format is in vitro ADME. Also noted: key to maximum inhibition: NIO: No interaction observed. The following applies: for maximum inhibition: 0.3-300 μM. Here is the method:
(§1) Uptake experiments were performed using CHO, MDCKII, or HEK293 cells stably expressing the respective uptake transporters.
(§2) Cells were cultured at 37±1° C. in an atmosphere of 95:5 air:CO2 and were plated onto standard 96-well tissue culture plates at the cell number described in table 4.
(§3) Before the experiment, the medium was removed and the cells were washed twice with 100 μl of HK buffer at pH 7.4 (prepared from Sigma chemicals, Sigma-Aldrich, St Louis, Mo.). Uptake experiments were carried out at 37±1° C. in 50 μl of HK buffer (pH 7.4) containing the probe substrate and the TA or vehicle control (water).
(§4) After the experiment, cells were washed twice with ice cold, 100 μl of HK buffer and lysed with 50 μl of 0.1 M NaOH (1 mM CaCl2) in 5% SDS in the case of OATP1B3). Fluo-3 transport (OATP1B3) was determined by measuring fluorescence using 485 nm and 520 nm as the excitation and emission wavelengths, respectively. Radiolabelled probe substrate transport was determined by measuring an aliquot (35 μl) from each well for liquid scintillation counting.
(§5) Uptake of the probe substrate in control cells provided background activity values for all data points. Incubation without TA or reference inhibitor (solvent only) provided 100% activity values. A reference inhibitor served as positive control for inhibition.
(§6) The amount of translocated probe substrate was determined for each well in cpm or RFU. Relative activities were calculated from the equation:
(§7) [formula] A: amount of translocated substrate in the presence of TA in transfected cells B: amount of translocated substrate in the presence of TA in control cells C: amount of translocated substrate in the presence of solvent in transfected cells D: amount of translocated substrate in the presence of solvent in control cells Calculation of Fold Accumulation Values
(§8) In uptake transporter inhibition assays, the IC50 (μM) was calculated, where applicable. […]

Data set [2] in a line: Solubility of test article in water and methanol. The format is physicochemical. The following applies: 25° C.
The conditions of data set [3]: cited from earlier work.
In data set [4] the target is T2, OATP1B3 (Homo sapiens, UniProt Q9NPD5).
T2 sequence (Q9NPD5 1-702): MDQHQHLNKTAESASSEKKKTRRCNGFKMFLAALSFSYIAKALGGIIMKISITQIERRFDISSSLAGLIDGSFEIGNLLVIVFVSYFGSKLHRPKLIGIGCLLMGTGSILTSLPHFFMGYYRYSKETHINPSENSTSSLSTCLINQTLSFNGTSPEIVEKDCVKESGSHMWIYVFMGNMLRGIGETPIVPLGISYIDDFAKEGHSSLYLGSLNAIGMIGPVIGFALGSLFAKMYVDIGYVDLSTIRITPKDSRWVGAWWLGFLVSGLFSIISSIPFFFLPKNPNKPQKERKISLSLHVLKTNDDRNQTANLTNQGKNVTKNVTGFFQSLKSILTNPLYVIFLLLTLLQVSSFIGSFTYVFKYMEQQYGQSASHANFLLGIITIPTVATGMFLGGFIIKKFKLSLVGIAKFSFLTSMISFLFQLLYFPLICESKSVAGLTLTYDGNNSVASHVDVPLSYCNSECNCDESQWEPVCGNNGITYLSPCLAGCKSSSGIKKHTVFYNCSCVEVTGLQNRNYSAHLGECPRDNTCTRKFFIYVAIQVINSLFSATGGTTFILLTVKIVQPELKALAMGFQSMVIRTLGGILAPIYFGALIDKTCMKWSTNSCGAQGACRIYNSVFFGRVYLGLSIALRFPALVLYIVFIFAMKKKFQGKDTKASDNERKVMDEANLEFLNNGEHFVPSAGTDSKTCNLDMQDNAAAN
Briefly: Uptake transporter inhibition assay, OATP1B3. The data set is classed as in vitro ADME. Also noted: expressed in transfected cells; host or cells: CHO (protocol UPT-CHO-OATP1B3-Fluo3; control: parental CHO-K1; 5 mM Na+ butyrate induction); key to maximum inhibition: NIO: No interaction observed. The following applies: for maximum inhibition: 0.3-300 μM. Here is the method:
as §1, §2, §3, §4, §5, §6, §7, §8

Entries after “also recorded” stand apart in the source; their conditions may differ.

For `[O-][n+]1cccc(C(Cl)=NOCC(O)CN2CCCCC2)c1` (centres unmarked) [Arimoclomol, N-[2-hydroxy-3-(1-piperidinyl)-propoxy]-pyridine-1-oxide-3-carboximidoyl chloride], the maximum inhibition entry in data set [1] (Table 2), in data set [1] (Table 5), in data set [4] (Table 2) and in data set [4] (Table 5) was “NIO” in each case. For the same molecule, the “Influence on OAT1-mediated probe substrate accumulation (in words)” value in data set [1] (applied concentrations) was “did not influence; also recorded: not an inhibitor”. Further, the Solubility in data set [2] (methanol) stood at 0.4 g/100 mL; in data set [2] (water), 14 g/100 mL. In addition, the maximum tolerated dose entry in data set [3] (healthy human volunteers) is given as “no maximum tolerated dose has been reached”. Also, in data set [3] (oral single ascending or repeated doses 50 to 800 mg, 261 subjects), the safety and tolerability result was “safe and well-tolerated”. Also, in data set [3] (single- and multiple-dose Phase I studies), the serum creatinine levels entry is “slight and reversible increases”. Moreover, in data set [4] (applied concentrations), the “Influence on OATP1B3-mediated probe substrate accumulation (in words)” value is listed as “did not influence; also recorded: not an inhibitor”.

Values taken from patent US11229633B2, “Arimoclomol formulation” (Orphazyme A/S, priority 2014, dated 2022).
